{
  "source": "patent US20180214412A1",
  "about": "“IMMEDIATE RELEASE CANNABINOID FORMULATIONS” (CannTab Therapeutics Limited, priority 2017, published 2018)",
  "origin": "cited, not measured here",
  "settings": "after administration",
  "data": [
    {"smiles": "CCCCCc1cc(O)c2c(c1)OC(C)(C)[C@@H]1CCC(C)=C[C@@H]21", "note": "[Dronabinol, (−)-trans-Δ9-tetrahydrocannabinol]", "values": [
      {"measurement": "duration of appetite stimulant effect", "value": "≥ 24", "unit": "h"}
    ]}
  ]
}
